EP0595557A1, “New substituted azetidinones as anti-inflammatory and antidegenerative agents” (MERCK & CO. INC., priority 1992, dated 1994)

Biological target: T1, Human Polymorphonuclear Leukocyte Elastase (Homo sapiens, UniProt P08246)
T1 construct: Crude extract of human polymorphonuclear leukocytes (PMN) containing elastase activity; from tissue; host or cells: human polymorphonuclear leukocytes (crude extract)
T1 sequence (P08246 30-267): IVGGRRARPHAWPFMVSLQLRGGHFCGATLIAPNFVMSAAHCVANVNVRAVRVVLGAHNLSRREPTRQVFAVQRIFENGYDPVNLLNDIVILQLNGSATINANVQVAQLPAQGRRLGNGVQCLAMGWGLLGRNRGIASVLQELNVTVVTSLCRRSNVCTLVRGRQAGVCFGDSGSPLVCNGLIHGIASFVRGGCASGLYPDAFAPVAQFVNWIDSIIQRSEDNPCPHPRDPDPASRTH
Test: Enzyme assay for inhibition of human polymorphonuclear leukocyte elastase via hydrolysis of Boc-AAPAN or Boc-AAPVN
Format: biochemical
Conditions: expressed to the nearest thousand; for kinact/KI: pH 7.5, second order rate constant for inactivation of the enzyme, read-out: Kobs/[I]
How it was run: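 Crude human PMN extract as enzyme source, with 0.2 mM Boc-AAPAN in 0.05M TES buffer pH 7.5. Inhibitors in DMSO were added to substrate before the extract, and rate was followed as ΔOD/min at 410 mµ. Values are kobs/I, the second-order inactivation rate constant (per mole per second).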

SMILES: CCC[C@@H](NC(=O)N1C(=O)C(CC)(CC)[C@@H]1Oc1ccc(C(=O)NC(C)[PH](=O)O)cc1)c1ccc(C)cc1 (stereo partly shown) [Compound 183]
- kinact/KI: 977000 M⁻¹ s⁻¹

SMILES: CCC[C@@H](NC(=O)N1C(=O)C(CC)(CC)[C@@H]1Oc1ccc(C(=O)N(CCN(C)Cc2ccccc2)Cc2ccncc2)cc1)c1ccc(C)cc1 [Compound 193]
- kinact/KI: 2.24e+06 M⁻¹ s⁻¹

SMILES: CCC[C@@H](NC(=O)N1C(=O)C(CC)(CC)[C@@H]1Oc1ccc(C(=O)N(C)CCN(C)Cc2cccc(C#N)c2)cc1)c1ccc(C)cc1 [Compound 179]
- kinact/KI: 2.45e+06 M⁻¹ s⁻¹

SMILES: CCC[C@@H](NC(=O)N1C(=O)C(CC)(CC)[C@@H]1Oc1ccc(C(=O)NCCn2cnnn2)cc1)c1ccc(C)cc1 [Compound 101]
- kinact/KI: 2.05e+06 M⁻¹ s⁻¹

SMILES: CCC[C@@H](NC(=O)N1C(=O)C(CC)(CC)[C@@H]1Oc1ccc(C(=O)NCCn2cncn2)cc1)c1ccc(C)cc1 [Compound 96]
- kinact/KI: 1.4e+06 M⁻¹ s⁻¹

SMILES: CCC[C@@H](NC(=O)N1C(=O)C(CC)(CC)[C@@H]1Oc1ccc(C(=O)N(C)CCN(C)C(=O)NC)cc1)c1ccc(C)cc1 [Compound 106]
- kinact/KI: 2.49e+06 M⁻¹ s⁻¹

SMILES: CCC[C@@H](NC(=O)N1C(=O)C(CC)(CC)[C@@H]1Oc1ccc(C(=O)N(C)CCN(CC)CC)cc1)c1ccc(C)cc1 [Compound 81]
- kinact/KI: 2.19e+06 M⁻¹ s⁻¹

SMILES: CCC[C@@H](NC(=O)N1C(=O)C(CC)(CC)[C@@H]1Oc1ccc(CC(=O)OCCN(C)C)cc1)c1ccc(C)cc1 [Compound 32]
- kinact/KI: 1.99e+06 M⁻¹ s⁻¹

SMILES: CCC[C@@H](NC(=O)N1C(=O)C(CC)(CC)[C@@H]1Oc1ccc(C(=O)N(C)CCCN(C)C)cc1)c1ccc(C)cc1 [Compound 83]
- kinact/KI: 1.8e+06 M⁻¹ s⁻¹

SMILES: CCC[C@@H](NC(=O)N1C(=O)C(CC)(CC)[C@@H]1Oc1ccc(C(=O)N[C@@H](CCCCN)C(=O)O)cc1)c1ccc(C)cc1 [Compound 184]
- kinact/KI: 755000 M⁻¹ s⁻¹

SMILES: CCCCN(C)C(=O)c1ccc(O[C@@H]2N(C(=O)N[C@H](CCC)c3ccc(CC)c(C(=O)N4CCOCC4)c3)C(=O)C2(CC)CC)cc1 [Compound 273]
- kinact/KI: 3.26e+06 M⁻¹ s⁻¹

SMILES: CCC[C@@H](NC(=O)N1C(=O)C(CC)(CC)[C@@H]1Oc1ccc(C(=O)N(C)CCN2CC(C)OC(C)C2)cc1)c1ccc(C)cc1 (stereo partly shown) [Compound 196]
- kinact/KI: 1.53e+06 M⁻¹ s⁻¹

SMILES: CCC[C@@H](NC(=O)N1C(=O)C(CC)(CC)[C@@H]1Oc1ccc(CC(=O)NCC(C)N(C)C)cc1)c1ccc(C)cc1 (stereo partly shown) [Compound 57]
- kinact/KI: 1.34e+06 M⁻¹ s⁻¹

SMILES: CCC[C@@H](NC(=O)N1C(=O)C(CC)(CC)[C@@H]1Oc1ccc(C(=O)N(C)CCN(C)C)cc1)c1ccc(C(=O)N2CCOCC2)cc1 [Compound 277]
- kinact/KI: 548000 M⁻¹ s⁻¹

SMILES: CCC[C@@H](NC(=O)N1C(=O)C(CC)(CC)[C@@H]1Oc1ccc(C(=O)N(C)C2CCNCC2)cc1)c1ccc(C)cc1 [Compound 211]
- kinact/KI: 85000 M⁻¹ s⁻¹

SMILES: CCC[C@@H](NC(=O)N1C(=O)C(CC)(CC)[C@@H]1Oc1ccc(C(=O)N2CCN(CC(=O)O)CC2)cc1)c1ccc(C)cc1 [Compound 251]
- kinact/KI: 1.95e+06 M⁻¹ s⁻¹

SMILES: CCCC(NC(=O)N1C(=O)C(CC)(CC)C1Oc1ccc(C(=O)OCCN(C)C)cc1)c1ccc(C)cc1 (stereo not drawn) [Compound 1, 2-(dimethylamino)ethyl (S-(R*,S*))-4-((3,3-diethyl-1-(((1-(4-methyl-phenyl)butyl)amino)carbonyl)-4-oxo-2-azetidinyl)oxy)benzoate]
- kinact/KI: 1.57e+06 M⁻¹ s⁻¹

SMILES: CCC[C@@H](NC(=O)N1C(=O)C(CC)(CC)[C@@H]1Oc1ccc(CC(=O)N(C)CCN(CCOC)CCOC)cc1)c1ccc(C)cc1 [Compound 54]
- kinact/KI: 1.39e+06 M⁻¹ s⁻¹

SMILES: CCC[C@@H](NC(=O)N1C(=O)C(CC)(CC)[C@@H]1Oc1ccc(C(=O)OCCN2CCOCC2)cc1)c1ccc(C)cc1 [Compound 17, 2-(1-[4-morpholino]ethyl) [S-(R*,S*)]-4-[[3,3-diethyl-1-[[[1-(4-methyl-phenyl)butyl]amino]carbonyl]-4-oxo-2-azetidinyl]oxy]benzoate]
- kinact/KI: 4.73e+06 M⁻¹ s⁻¹

SMILES: CCC[C@@H](NC(=O)N1C(=O)C(CC)(CC)[C@@H]1Oc1ccc(CC(=O)NCCc2ccncc2)cc1)c1ccc(C)cc1 [Compound 46]
- kinact/KI: 2.25e+06 M⁻¹ s⁻¹

SMILES: CCC[C@@H](NC(=O)N1C(=O)C(CC)(CC)[C@@H]1Oc1ccc(C(=O)N(C)CCN(C)Cc2cccnc2)cc1)c1ccc(C)cc1 [Compound 145]
- kinact/KI: 2.88e+06 M⁻¹ s⁻¹

SMILES: CCC[C@@H](NC(=O)N1C(=O)C(CC)(CC)[C@@H]1Oc1ccc(CC(=O)N(C)CCCC(=O)O)cc1)c1ccc(C)cc1 [Compound 64]
- kinact/KI: 917000 M⁻¹ s⁻¹

SMILES: CCC[C@@H](NC(=O)N1C(=O)C(CC)(CC)[C@@H]1Oc1ccc(C(=O)N(CCN2CCCCC2)Cc2ccccc2)cc1)c1ccc(C)cc1 [Compound 133]
- kinact/KI: 1.52e+06 M⁻¹ s⁻¹

SMILES: CCCC(NC(=O)N1C(=O)C(CC)(CC)C1Oc1ccc(C(=O)OCC(=O)O)cc1)c1ccc(C)cc1 (stereo not drawn) [Compound 2, Carboxymethyl [S-(R*,S*)]4-((3,3-diethyl-1-(((1-(4-methyl-phenyl)butyl)amino)carbonyl)-4-oxo-2-azetidinyl)oxy)benzoate]
- kinact/KI: 1.67e+06 M⁻¹ s⁻¹

SMILES: CCC[C@@H](NC(=O)N1C(=O)C(CC)(CC)[C@@H]1Oc1ccc(C(=O)NC2CN(CC)N(CC)C2)cc1)c1ccc(C)cc1 [Compound 118]
- kinact/KI: 1e+06 M⁻¹ s⁻¹

SMILES: CCC[C@@H](NC(=O)N1C(=O)C(CC)(CC)[C@@H]1Oc1ccc(CC(=O)N(C)CCN(C)C)cc1)c1ccc(OC)cc1 [Compound 289]
- kinact/KI: 754000 M⁻¹ s⁻¹

SMILES: CCC[C@@H](NC(=O)N1C(=O)C(CC)(CC)[C@@H]1Oc1ccc(C(=O)N2CCC[C@H]2C(N)=O)cc1)c1ccc(C)cc1 [Compound 227]
- kinact/KI: 931000 M⁻¹ s⁻¹

SMILES: CCC[C@@H](NC(=O)N1C(=O)C(CC)(CC)[C@@H]1Oc1ccc(CC(=O)N(CCO)CCO)cc1)c1ccc(C)cc1 [Compound 40]
- kinact/KI: 1.24e+06 M⁻¹ s⁻¹

SMILES: CCC[C@@H](NC(=O)N1C(=O)C(CC)(CC)[C@@H]1Oc1ccc(CC(=O)N(C)CC(=O)O)cc1)c1ccc(C)cc1 [Compound 50]
- kinact/KI: 989000 M⁻¹ s⁻¹

SMILES: CCC[C@@H](NC(=O)N1C(=O)C(CC)(CC)[C@@H]1Oc1ccc(C(=O)N(CC)CC)cc1)c1ccc2c(c1)OCO2 [Compound 261]
- kinact/KI: 3.21e+06 M⁻¹ s⁻¹

SMILES: CCC[C@@H](NC(=O)N1C(=O)C(CC)(CC)[C@@H]1Oc1ccc(CC(=O)N2CCOCC2)cc1)c1cccc(C(=O)N2CCOCC2)c1 [Compound 266]
- kinact/KI: 169000 M⁻¹ s⁻¹

SMILES: CCC[C@@H](NC(=O)N1C(=O)C(CC)(CC)[C@@H]1Oc1ccc(C(=O)N(C)CCN(C)Cc2ccc(C)cc2C)cc1)c1ccc(C)cc1 [Compound 195]
- kinact/KI: 1.12e+06 M⁻¹ s⁻¹

SMILES: CCC[C@@H](NC(=O)N1C(=O)C(CC)(CC)[C@@H]1Oc1ccc(C(=O)N(C)CCN(C)Cc2ccc(C)cc2)cc1)c1ccc(C)cc1 [Compound 178]
- kinact/KI: 1.87e+06 M⁻¹ s⁻¹

SMILES: CCC[C@@H](NC(=O)N1C(=O)C(CC)(CC)[C@@H]1Oc1ccc(C(=O)N(C)CC[N+](C)([O-])Cc2ccccc2)cc1)c1ccc(C)cc1 (stereo partly shown) [Compound 147]
- kinact/KI: 2.49e+06 M⁻¹ s⁻¹

SMILES: CCC[C@@H](NC(=O)N1C(=O)C(CC)(CC)[C@@H]1Oc1ccc(C(=O)N(C)C2CCN(CC)CC2)cc1)c1ccc(C)cc1 [Compound 217]
- kinact/KI: 1.42e+06 M⁻¹ s⁻¹

SMILES: CCC[C@@H](NC(=O)N1C(=O)C(CC)(CC)[C@@H]1Oc1ccc(C(=O)N(C)CCc2ccccn2)cc1)c1ccc(C)cc1 [Compound 115]
- kinact/KI: 2.27e+06 M⁻¹ s⁻¹

SMILES: C=CCN(CC=C)CCOC(=O)c1ccc(O[C@@H]2N(C(=O)N[C@H](CCC)c3ccc(C)cc3)C(=O)C2(CC)CC)cc1 [Compound 29, 2-(di-2-propenylamino)ethyl [S-(R*,S*)]-4-[[3,3-diethyl-1-[[[1-(4-methylphenyl)butyl]amino]carbonyl]-4-oxo-2-azetidinyl]oxy]benzoate]
- kinact/KI: 891000 M⁻¹ s⁻¹

SMILES: CCC[C@@H](NC(=O)N1C(=O)C(CC)(CC)[C@@H]1Oc1ccc(CC(=O)OC(C)CN(C)C)cc1)c1ccc(C)cc1 (stereo partly shown) [Compound 36]
- kinact/KI: 1.69e+06 M⁻¹ s⁻¹

SMILES: CCC[C@@H](NC(=O)N1C(=O)C(CC)(CC)[C@@H]1Oc1ccc(C(=O)O[C@@H](C)C(=O)O)cc1)c1ccc(C)cc1 [Compound 11, 1-carboxy-ethyl [S-(R*,S*)]4-((3,3-diethyl-1-(((1-(4-methylphenyl)butyl)amino)carbonyl)-4-oxo-2-azetidinyl)oxy) benzoate]
- kinact/KI: 1.13e+06 M⁻¹ s⁻¹

SMILES: CCC[C@@H](NC(=O)N1C(=O)C(CC)(CC)[C@@H]1Oc1ccc(C(=O)OCC(=O)N2CCC[C@H]2C(=O)O)cc1)c1ccc(C)cc1 (relative stereo) [Compound 9, (S(R*,S*))-1-(((4-((3,3-diethyl-1-(((1-(4-methylphenyl)butyl)amino)carbonyl)-4-oxo-2-azetidinyl)oxy)benzoyl)oxy)acetyl) L-proline]
- kinact/KI: 1.57e+06 M⁻¹ s⁻¹

SMILES: CCC[C@@H](NC(=O)N1C(=O)C(CC)(CC)[C@@H]1Oc1ccc(C(=O)N(C)CCN2CCN(C(=O)OC(C)(C)C)CC2)cc1)c1ccc(C)cc1 [Compound 142]
- kinact/KI: 3.47e+06 M⁻¹ s⁻¹

SMILES: CCC[C@@H](NC(=O)N1C(=O)C(CC)(CC)[C@@H]1Oc1ccc(C(=O)OCC(=O)N2CCC[C@H]2C(=O)NCc2ccccc2)cc1)c1ccc(C)cc1 [Compound 19, [S-(R*,S*)] 1-(((4-((3,3-diethyl-1-(((1-(4-methylphenyl)butyl)amino)carbonyl-4-oxo-2-azetidinyl)oxy)benzoyl)oxy)acetyl-N-benzyl-L-prolinamide]
- kinact/KI: 4.96e+06 M⁻¹ s⁻¹

SMILES: CCC[C@@H](NC(=O)N1C(=O)C(CC)(CC)[C@@H]1Oc1cc(C)c(C(=O)N(C)CCN(C)C)c(C)c1)c1ccc(C)cc1 [Compound 307]
- kinact/KI: 352000 M⁻¹ s⁻¹

SMILES: CCC[C@@H](NC(=O)N1C(=O)C(CC)(CC)[C@@H]1Oc1ccc(CC(=O)Nc2cccc(Cl)c2)cc1)c1ccc(C)cc1 [Compound 61]
- kinact/KI: 733000 M⁻¹ s⁻¹

SMILES: CCC[C@@H](NC(=O)N1C(=O)C(CC)(CC)[C@@H]1Oc1ccc(C(=O)N(C)CCN2CC3CCC(CC3)C2)cc1)c1ccc(C)cc1 [Compound 108]
- Kobs/[I] (second order rate constant for inactivation of the enzyme, pH 7.5): 2,953,000 per mole per second

SMILES: CCC[C@@H](NC(=O)N1C(=O)C(CC)(CC)[C@@H]1Oc1ccc(CC(=O)N(CCC)CCC)cc1)c1ccc(C)cc1 [Compound 59]
- kinact/KI: 1.14e+06 M⁻¹ s⁻¹
